From patent US12220446B2, “Use of upstream open reading frame 45aa-uORF nucleotide sequence of PTEN gene and polypeptide coded by 45aa-uORF” (THE FIRST AFFILIATED HOSPITAL, SUN YAT-SEN UNIVERSITY, priority 2017, dated 2025)

How the values were obtained:
U251 neuroglioma cells = experiment: Lentiviral overexpression of 45aa-uORF in U251 cells: cell cycle, CCK-8 growth curve, clone formation assay, soft agar; type: cell-based; details: stably overexpressed via lentivirus vector vs U251-GFP control cells
Procedure: A vector for overexpressed 45aa-uORF-GFP (the skeleton of the vector is pCDH-CMV-MCS-EF1-Puro) was constructed and then used to transfect into HEK-293T cells together with lentivirus skeleton vectors PSPAX2, PMD2G in a ratio of 1:3:1 to package the lentivirus. The medium supernatants with the lentivirus were collected at 48 hours and 72 hours, respectively, and then used to infect U251 cells (added with 8 μg/ml polybrene to improve the infection efficiency). Puromycin ([…]) was employed for screening and removed three days later, and then the cells were proliferated normally. […]
1.5 Million U251 glioma cells of lentivirus overexpressed 45aa-uORF were inoculated into a T25 culture flask. […] Then, after being centrifuged and washed with PBS once, the precipitate was resuspended in 25 μg/mL Propidium Iodide (PI, sigma)/PBS solution, stained for 30 minutes away from light, and then detected on cell-cycle distribution thereof.
U251-GFP control cells or U251-45aa-uORF-GFP cells were inoculated into a 96-well plate in a quantity of 2000 cells per well. […] After cell adherence to the wall, the CCK-8 (Dojindo, CK04) reagent was added by 10 μL per well every 24 hours for culture at 37° C. for 1-4 hours, and then the absorbance (OD) of […] was detected. The absorbance value was directly proportional to the number of cells. […]

[1] = tested on: U251 neuroglioma transplanted tumors; experiment: U251 tumor subcutaneously implanted in nude mice, intratumoral peptide injection; type: in vivo; details: 25 μg/tumor every other day, 5-6 medications, vs control polypeptide of shuffled sequence
Procedure: In one aspect, the anti-tumor ability of the 45aa-uORF coded micropeptide is verified in vivo by animal experiments in the present invention. Mice are subcutaneously inoculated with 2 million U251 neuroglioma cells. Thirty days later, transplanted tumors are treated with the chemically synthesized 45aa-uORF coded micropeptide (25 ug/tumor) every other day.
U251 cells were inoculated to the left and right sides of nude mice by 2 million at each point. Thirty days later, the formation of tumors was observed, and the tumors were averagely divided into a control group and an experimental group by size (five nude mice and ten tumors in each group). The control group was injected with a control polypeptide every other day, and the experimental group was injected with the 45aa-uORF polypeptide every other day. Each tumor was injected with 25 μg synthetic peptide. The long diameters and short diameters of the tumors were measured before the medication, and after 5-6 times medications, the nude mice were sacrificed, and tumors were taken out, photographed and weighed. Tumor volume=½*long diameter*the square of short diameter

U251 cells [2] = experiment: Cell viability with CCK-8 after adding chemically synthesized polypeptide; type: cell-based; details: 25 μM, washed out after 4 hours, culture for 72 hours
U251 cells [3] = experiment: Ability of FITC-labelled micropeptide to enter cells (fluorescence microscopy); type: cell-based; details: FITC-attached micropeptide, 20 μM, 4 hours
Procedure: U251 cells were inoculated onto a glass slide at the density of 50%, and different concentrations of PTEN-45aa micropeptide t attached with FITC fluorescent groups (the micropeptide was dissolved in DMSO with a concentration being 20 μg/μL) were added to treat cells for 4 hours, then fixed with Faure Marin, and observed and photographed under a fluorescence microscope.

[4] = listed as 45aa-uORF coded polypeptide

Sequence: MRDGGGRGPEPLSAPVSSRGGSALGEPAGLRRRQRRRFSPPLRLF (listed as Homo sapiens) [PTEN-45aa, oligopeptide of 45 amino acids coded by the 45aa-uORF in the 5′UTR of human PTEN gene]
- growth and proliferation of U251 glioma cells (U251 neuroglioma cells): significantly suppress the growth and proliferation
- clone formation of U251 neuroglioma cells (CFA, soft agar) (U251 neuroglioma cells; two weeks): significantly suppress the growth, proliferation and clone formation
- growth and formation of U251 transplanted tumors [1]: significantly suppress the growth and formation of the tumors
- growth and proliferation of glioma cells (cell viability, CCK-8) (U251 cells [2]; listed as 45aa-uORF coded micropeptide): significantly suppress the growth and proliferation
- growth and proliferation of glioma cells (cell viability, CCK-8) (U251 cells [2]; [4]): significantly suppress the growth of glioma cells
- ability of the micropeptide to enter cells (U251 cells [3]; [4]): can enter U251 cells
- ability of the micropeptide to enter cells (U251 cells [3]; listed as PTEN-45aa micropeptide): could enter the U251 cells smoothly
